Results: article PMC10689823, “Discovery of a Drug-like, Natural Product-Inspired DCAF11 Ligand Chemotype” (Nature Communications, 2023)
Where “and” joins values, the source holds several entries; their conditions need not be identical. Equal entries are not always repeated.

Columns and labels:
BTK = target: T1, BTK (Homo sapiens, UniProt Q06187); assay: BTK levels by Western blot in Ramos cells; format: cell-based; conditions: 6 h
T1 construct: endogenous in cells; host or cells: Ramos
Experimental: Cells were washed with PBS and lysed in lysis buffer (50 mM Tris-HCl, pH 7.4, 150 mM NaCl, 1% Triton X-100, 1% sodium deoxycholate, 0.1% SDS) with complete protease inhibitor cocktail (Roche, 11836170001) for 30 min on ice. For Ramos cells, cell pellets were lysed in lysis buffer (50 mM Tris-HCl, pH 8, 150 mM NaCl, 1% NP-40, 0.5% sodium deoxycholate) with complete protease inhibitor cocktail. After centrifugation at 16,000 x g, the supernatant was transferred into a new tube and the protein concentration was determined by DC protein assay (BIO-RAD, 5000116). Proteins were separated by SDS-PAGE and transferred to a PVDF membrane (Thermo scientific, 0.45 μm, 88518). For PDEδ, BRD2, GAPDH, BRD4, Vinculin and BTK, the membranes were blocked with Intercept® Blocking Buffer (LI-COR Biosciences, 927-70001) at room temperature for 1 h. The primary antibodies for these proteins were diluted with Intercept® Blocking Buffer (1:500 for PDEδ, 1:3000 for Vinculin, and 1:1000 for other proteins) and incubated with the membranes overnight at 4 °C. Membranes were washed with PBS + 0.1% Tween 20 (PBS-T) five times and incubated with secondary antibodies conjugated to IRDye® Infrared Fluorescent Dyes (1:5000, LI-COR Biosciences) at room temperature for 1 h with protection from light. […] Relative band intensities were quantified using Image Lab (BIO-RAD).

BLK = target: T2, BLK (Homo sapiens, UniProt P51451); assay: BLK levels by Western blot in Ramos cells; format: cell-based
T2 construct: endogenous in cells; host or cells: Ramos
T2 sequence (P51451 whole entry): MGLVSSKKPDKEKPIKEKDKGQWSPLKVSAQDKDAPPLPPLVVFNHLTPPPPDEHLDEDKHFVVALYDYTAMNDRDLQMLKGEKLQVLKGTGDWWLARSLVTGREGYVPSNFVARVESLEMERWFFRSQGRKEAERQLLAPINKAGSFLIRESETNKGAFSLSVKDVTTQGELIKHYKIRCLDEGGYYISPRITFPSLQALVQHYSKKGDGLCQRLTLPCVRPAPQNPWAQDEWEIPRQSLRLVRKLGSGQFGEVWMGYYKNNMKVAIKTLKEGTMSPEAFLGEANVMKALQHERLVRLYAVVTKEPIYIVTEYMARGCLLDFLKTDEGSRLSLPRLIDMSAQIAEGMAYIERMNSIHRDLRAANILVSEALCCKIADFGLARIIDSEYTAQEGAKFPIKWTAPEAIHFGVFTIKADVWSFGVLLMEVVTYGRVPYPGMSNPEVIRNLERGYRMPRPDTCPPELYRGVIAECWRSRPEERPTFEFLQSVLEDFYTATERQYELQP
Experimental: Cells were washed with PBS and lysed in lysis buffer (50 mM Tris-HCl, pH 7.4, 150 mM NaCl, 1% Triton X-100, 1% sodium deoxycholate, 0.1% SDS) with complete protease inhibitor cocktail (Roche, 11836170001) for 30 min on ice. For Ramos cells, cell pellets were lysed in lysis buffer (50 mM Tris-HCl, pH 8, 150 mM NaCl, 1% NP-40, 0.5% sodium deoxycholate) with complete protease inhibitor cocktail. After centrifugation at 16,000 x g, the supernatant was transferred into a new tube and the protein concentration was determined by DC protein assay (BIO-RAD, 5000116). Proteins were separated by SDS-PAGE and transferred to a PVDF membrane (Thermo scientific, 0.45 μm, 88518). For PDEδ, BRD2, GAPDH, BRD4, Vinculin and BTK, the membranes were blocked with Intercept® Blocking Buffer (LI-COR Biosciences, 927-70001) at room temperature for 1 h. The primary antibodies for these proteins were diluted with Intercept® Blocking Buffer (1:500 for PDEδ, 1:3000 for Vinculin, and 1:1000 for other proteins) and incubated with the membranes overnight at 4 °C. Membranes were washed with PBS + 0.1% Tween 20 (PBS-T) five times and incubated with secondary antibodies conjugated to IRDye® Infrared Fluorescent Dyes (1:5000, LI-COR Biosciences) at room temperature for 1 h with protection from light. After washing the membrane, signals were visualized using the ChemiDoc MP Imaging System (BIO-RAD Laboratories). For detection of LC3B, BRD3, BLK, DCAF11, DDB1 RBX1, FIP200, V5- and FLAG-Tag the membranes were blocked with 5% milk in PBS-T at room temperature for 1 h. The primary antibodies for these proteins were diluted in 5% milk in PBS-T buffer (1:200 for BRD3, 1:1000 for other proteins) and incubated with the membranes overnight at 4 °C. Membranes were washed with PBS-T five times and incubated with HRP secondary antibodies (1:1500) at room temperature for 1 h. After washing the membrane, protein detection was performed using Western blotting detection reagent (Thermo Scientific, 34095) and the ChemiDoc MP Imaging System (BIO-RAD). Relative band intensities were quantified using Image Lab (BIO-RAD).

T1 sequence (Q06187 whole entry): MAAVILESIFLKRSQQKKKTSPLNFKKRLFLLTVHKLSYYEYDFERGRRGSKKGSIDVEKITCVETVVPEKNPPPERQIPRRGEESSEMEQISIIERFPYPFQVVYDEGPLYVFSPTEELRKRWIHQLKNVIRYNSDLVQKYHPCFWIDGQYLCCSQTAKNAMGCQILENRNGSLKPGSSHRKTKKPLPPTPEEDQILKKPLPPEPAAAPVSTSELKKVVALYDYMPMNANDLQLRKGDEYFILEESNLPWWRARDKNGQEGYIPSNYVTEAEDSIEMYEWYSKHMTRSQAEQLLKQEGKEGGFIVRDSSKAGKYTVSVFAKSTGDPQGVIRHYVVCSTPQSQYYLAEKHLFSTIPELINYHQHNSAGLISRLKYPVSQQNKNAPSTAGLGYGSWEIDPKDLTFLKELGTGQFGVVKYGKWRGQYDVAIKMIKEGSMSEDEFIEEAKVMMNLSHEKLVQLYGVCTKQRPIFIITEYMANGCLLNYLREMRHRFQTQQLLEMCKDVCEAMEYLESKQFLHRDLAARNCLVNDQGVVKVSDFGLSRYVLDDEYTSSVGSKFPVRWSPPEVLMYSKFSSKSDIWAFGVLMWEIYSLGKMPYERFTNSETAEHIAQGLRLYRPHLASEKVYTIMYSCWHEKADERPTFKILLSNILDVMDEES

With `Nc1ncnc2c1c(-c1ccc(Oc3ccccc3)cc1)nn2C1CCN(CC(=O)NCCOCCOCCOCCOCCNC(=O)COc2c(Br)cc(/C=C3\C(=O)Nc4ccc(Br)cc43)cc2Br)CC1` [Compound 13] the “reduction of BTK levels” value (BTK) was 50%, the “BLK/Vinculin intensity (relative to DMSO control group)” value (BLK; 3 μM, 6 h, Fig. 2g) was 37.145 and 35.6045 and 46.4487 and the “BLK/Vinculin intensity (relative to DMSO control group)” value (BLK; 10 μM, 6 h, Fig. 2g) was 21.4399 and 23.7367 and 36.6727. The “BLK/Vinculin intensity (relative to DMSO control group)” value (BLK; 30 μM, 6 h, Fig. 2g) was 37.0963 and 39.3424 and 67.6199, the “reduction of BLK levels” value (BLK; Ramos cells, 6 h) was 70% and the “BLK/Vinculin intensity (relative to DMSO control group)” value (BLK; Ramos cells, pretreated CFZ 1 μM 40 min, then 10 μM, 6h, Fig. 2h) was 73.6122 and 85.1867 and 106.763. For the same compound, the “BLK/Vinculin intensity (relative to DMSO control group)” value (BLK; Ramos cells, pretreated CQ 50 μM 40 min, then 10 μM, 6h, Fig. 2h) was 24.1946 and 36.2698 and 40.4347 and the “BLK/Vinculin intensity (relative to DMSO control group)” value (BLK; Ramos cells, pretreated MLN4924 1 μM 40 min, then 10 μM, 6h, Fig. 2h) was 110.614 and 82.1333 and 144.155.
